How the values were obtained:
MDA-MB-468 cells = assay: 3H-Leucine protein synthesis assay; type: cell-based; conditions: 24 h, FIG. 9A
Protocol: Protein synthesis assays utilizing ^3H-Leucine purchased from Perkin Elmer (Waltham, MA) were carried out as detailed previously (Law B K, et al. J Biol Chem 2000; 275: 10796-10801; Law B K, et al. J Biol Chem 2000; 275: 38261-38267).

AGR3 = biological target: T1, AGR3 (Homo sapiens, UniProt Q8TD06); assay: DDA binding assay with AGR3; conditions: molar excess, pre-incubation with 600 μM, FIG. 2D
T1 construct: His6 (N); purchased ProSpec PRO-242
T1 sequence (Q8TD06 22-166): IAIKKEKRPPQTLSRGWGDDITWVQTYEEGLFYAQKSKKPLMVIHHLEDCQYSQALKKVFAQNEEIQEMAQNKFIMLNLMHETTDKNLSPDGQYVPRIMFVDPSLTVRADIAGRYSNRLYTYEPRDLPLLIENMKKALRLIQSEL
Protocol: (§1) Purified His6-AGR2 or His6-AGR2 C81S, as prepared above, or His6-AGR2 (PRO-580) or His6-AGR3 (PRO-242) obtained from ProSpec (New Brunswick NJ) were incubated with or without varying concentrations of the unlabeled DDA competitors, tcyDTDO or dMtcyDTDO, and 30 μM Biotin-GlyPyrDTDO or Biotin-PyrDTDO in buffer (20 mM HEPES (pH 7.4), 1 mM EDTA, 1 mM EGTA, 5% Glycerol, 1 nM Microcystin, 1 mM Na3VO4, and 40 mM Na2H2P2O7) containing 1% Triton-X 100 for 30 min at 37° C. […] Therefore, the two probes were used interchangeably. Reactions were stopped by boiling the samples in 2×-SDS-Sample Buffer containing 100 mM NEM for 10 min. Biotin-DDA labeling of protein was verified by blotting with Streptavidin-Alkaline Phosphatase (Rockland Immunochemicals, Inc., Limerick, PA). ERp44 (PRO-547) and PDIA1 (ENZ-262) were obtained from ProSpec and used in experiments examining the binding of these proteins to Biotin-PyrDTDO.

ERp44/DR5 complexes [1] = biological target: T2, ERp44/DR5 complexes (Homo sapiens, UniProt Q9BS26); assay: ERp44 co-immunoprecipitation; type: cell-based; conditions: MDA-MB-468 cells inducibly expressing wild type DR5, 24 h, FIG. 7D
T2 construct: endogenous in cells; host or cells: MDA-MB-468
T2 sequence (O14763 56-440 partner, one chain of several): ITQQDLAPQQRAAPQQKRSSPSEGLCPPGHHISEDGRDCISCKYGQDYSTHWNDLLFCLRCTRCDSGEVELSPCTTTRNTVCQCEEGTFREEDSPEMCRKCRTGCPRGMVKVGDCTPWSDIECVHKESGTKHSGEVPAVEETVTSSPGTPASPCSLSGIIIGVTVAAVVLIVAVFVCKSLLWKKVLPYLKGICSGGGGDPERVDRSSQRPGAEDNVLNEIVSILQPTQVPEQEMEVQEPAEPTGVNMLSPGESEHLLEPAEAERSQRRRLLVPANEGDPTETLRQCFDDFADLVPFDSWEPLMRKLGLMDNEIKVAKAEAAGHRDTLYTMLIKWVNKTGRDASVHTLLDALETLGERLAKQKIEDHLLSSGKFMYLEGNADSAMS

ERp44/DR5 complexes [2] = biological target: T3, ERp44/DR5 complexes (Homo sapiens, UniProt Q9BS26); assay: ERp44 co-immunoprecipitation; type: cell-based; conditions: MDA-MB-468 cells inducibly expressing Δ81-178 DR5, 24 h, FIG. 7D
T3 construct: endogenous in cells; host or cells: MDA-MB-468

ERp44 = biological target: T4, ERp44 (Homo sapiens, UniProt Q9BS26); assay: ERp44 disulfide bonding with client proteins, non-reducing immunoblot; type: cell-based; parameters: endogenous in cells; host or cells: MDA-MB-468; conditions: MDA-MB-468 cells
T4 sequence (Q9BS26 30-406): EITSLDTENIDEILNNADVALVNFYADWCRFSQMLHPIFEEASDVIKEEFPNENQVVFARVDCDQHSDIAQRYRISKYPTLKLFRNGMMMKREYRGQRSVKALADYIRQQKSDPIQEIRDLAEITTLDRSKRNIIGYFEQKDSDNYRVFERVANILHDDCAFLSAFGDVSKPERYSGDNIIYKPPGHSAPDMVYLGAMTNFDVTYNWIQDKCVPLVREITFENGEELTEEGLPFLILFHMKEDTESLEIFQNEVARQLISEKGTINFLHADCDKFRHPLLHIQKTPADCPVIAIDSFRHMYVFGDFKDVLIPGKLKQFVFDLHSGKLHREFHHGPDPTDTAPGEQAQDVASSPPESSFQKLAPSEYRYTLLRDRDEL
Protocol: (§2) To assess protein disulfide bond-mediated oligomerization, cells were treated with DDAs for 24 h in 10% FBS-DMEM. Cells were subsequently scraped directly into the media and pelleted by centrifugation. Cells were extracted directly into boiling 2×-SDS-Sample Buffer containing 100 mM NEM and boiled for 10 min. Samples were sonicated, followed by centrifugation for 20 min at room temperature. Samples were subsequently analyzed by SDS-PAGE and immunoblot.

PDIA1 = PDIA1 (Homo sapiens, UniProt P07237); assay: PDIA1 disulfide bonding with client proteins, non-reducing immunoblot; type: cell-based; parameters: endogenous in cells; host or cells: MDA-MB-468; conditions: MDA-MB-468 cells, 5 μM, 24 h, FIG. 3E
PDIA1, sequence (P07237 18-508): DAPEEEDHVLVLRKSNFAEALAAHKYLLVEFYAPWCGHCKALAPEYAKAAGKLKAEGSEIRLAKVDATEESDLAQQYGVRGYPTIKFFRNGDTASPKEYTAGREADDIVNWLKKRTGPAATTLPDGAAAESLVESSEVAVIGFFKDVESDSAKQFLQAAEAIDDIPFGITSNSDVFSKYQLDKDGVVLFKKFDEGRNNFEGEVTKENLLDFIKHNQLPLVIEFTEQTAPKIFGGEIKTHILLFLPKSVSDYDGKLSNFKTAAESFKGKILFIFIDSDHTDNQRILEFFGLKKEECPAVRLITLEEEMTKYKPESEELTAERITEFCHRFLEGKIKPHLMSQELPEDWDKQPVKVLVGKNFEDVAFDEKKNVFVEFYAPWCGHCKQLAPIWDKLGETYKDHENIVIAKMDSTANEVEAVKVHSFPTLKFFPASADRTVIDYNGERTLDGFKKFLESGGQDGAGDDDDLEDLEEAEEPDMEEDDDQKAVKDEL
Protocol: as §2

AGR2 = biological target: T5, AGR2 (Homo sapiens, UniProt O95994); assay: DDA-AGR2 binding assay, Streptavidin-Alkaline Phosphatase blot; parameters: made in house; host or cells: E. coli BL21(DE3), pET-45b(+)
T5 sequence (O95994 21-175): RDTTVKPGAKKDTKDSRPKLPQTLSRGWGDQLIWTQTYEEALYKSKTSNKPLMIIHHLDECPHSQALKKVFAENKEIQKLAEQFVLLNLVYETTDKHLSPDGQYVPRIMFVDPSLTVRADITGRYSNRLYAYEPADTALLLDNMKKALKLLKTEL
Protocol: Competent BL21(DE3) cells were transformed with either the AGR2/pET-45b(+) or AGR2 C81S/pET-45b(+) vectors. Protein expression was induced by the addition of 50 µM Isopropyl β-D-1-thiogalactopyranoside (Fisher Scientific, Fair Lawn, NJ) to bacterial cell cultures for 2.5 hours and shaking at 37° C. Bacterial cells were subsequently pelleted and dissolved in Mouse Tonicity Phosphate Buffered Saline (MTPBS) containing 1% Triton X-100 and sonicated for 20 seconds on ice, followed by centrifugation for 10 min at 4° C. to pellet cell debris. The supernatant was transferred to a new tube, followed by the addition of TALON Resin (Clontech, Mountain View, CA) and mixing on a Nutator for 30 min at 4° C. The TALON Resin was pelleted by centrifugation and washed twice with MTPBS and twice with MTPBS containing 30 mM Imidazole. Protein bound to the TALON Resin was eluted with 400 mM Imidazole and precipitated with 60% saturated ammonium sulfate. The precipitated protein was pelleted by centrifugation, dissolved in MTPBS containing 1 mM DTT and 1 mM EDTA, and subsequently dialyzed against a solution of MTPBS containing 10 μM DTT and 30% Glycerol.
as §1

CO[C@H]1C[C@@H]2CS(=O)(=O)SC[C@H]2C[C@@H]1OC [dMtcyDTDO, dimethoxy-tcyDTDO]
Potency in protein synthesis assay relative to tcyDTDO (MDA-MB-468 cells): two-fold greater potency than tcyDTDO | Competition with Biotin-GlyPyrDTDO binding to AGR3 (AGR3): partially prevented Biotin-GlyPyrDTDO binding | ERp44 binding to wild type DR5 in treated cells (ERp44/DR5 complexes [1]): wild type DR5 bound ERp44 | ERp44 binding to DR5[Δ81-178] in treated cells (ERp44/DR5 complexes [2]): barely detectable | Disulfide bonding of ERp44 with client proteins (ERp44; 5 μM, 24 h, FIG. 3E): reduces disulfide bonding of ERp44 and PDIA1 with multiple proteins | Monomeric levels of ERp44 (ERp44; 5 μM, 24 h, FIG. 3E): minimal effect on monomeric levels | ERp44 binding to client proteins, quantitation across four experiments (ERp44; FIG. 4D): decreased ERAP1 levels and ERp44 binding to client proteins in a statistically significant manner | Disulfide bonding of PDIA1 with client proteins (PDIA1): reduces disulfide bonding of ERp44 and PDIA1 with multiple proteins | Monomeric levels of PDIA1 (PDIA1): minimal effect on monomeric levels | Ability to block Biotin-GlyPyrDTDO binding to AGR2, compared with tcyDTDO (AGR2; FIG. 2E, 9E-F): more effective competitor | Competition with Biotin-GlyPyrDTDO binding to AGR2 (AGR2; molar excess, pre-incubation with 600 μM, FIG. 2D): partially prevented Biotin-GlyPyrDTDO binding

Source: patent publication US20240118281A1, “ANTICANCER COMPOUNDS AND USES THEREOF” (University of Florida Research Foundation, Incorporated, priority 2021, published 2024)
